From patent US20240417410A1, “TRICYCLIC COMPOUNDS FOR THE TREATMENT OF CANCER” (Hoffmann-La Roche Inc., priority 2023, published 2024) come the findings set out here.

What all share (assay type): cell-based
Test [1] has as its system phosphorylation of ERK, KRAS G12C in NCI-H358 cells. Description: pERK inhibition assay. The note with it: Homo sapiens, NCI-H358, 4 h. The gist of the method: (§1)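 Cells in RPMI-1640 with 10% FBS were plated overnight (30,000/well H358, 20,000 AGS, 30,000 SW620) and treated 4 h with compounds at 0.5% DMSO. After formaldehyde fixation and methanol permeabilization, pERK was detected by in-cell ELISA with HRP secondary and TMB (OD450); IC50 from 4-parameter fit.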

Test [2] has as its system phosphorylation of ERK, KRAS G12D in AGS cells. The test is described as follows: pERK inhibition assay. Conditions: 4 hours. Put shortly: as §1
Test [3] concerns phosphorylation of ERK, KRAS G12V in SW620. Description: pERK inhibition assay. The note with it: Homo sapiens, SW-620, 4 h, SW620 cells. The gist of the method: as §1
Test [4] deals with Miapaca-2 KRAS G12C + Q99W. Description: Stable KRAS mutant cell line viability assay (CellTiter-Glo). The note with it: Miapaca-2 mutant cells, 3 d. An excerpt:
(§2) The aim of the study was to determine the potency and efficacy of compounds for cell proliferation using CellTiter-Glo® (CTG) Luminescent Cell Viability Assay (Promega Corp., Madison, WI). We cloned 14 KRAS^G12C variant sequences with secondary mutations (V8A, V9Y, S17E, T58I, A59T, S65W, R68S, D69P, M72I, D92R, H95N, Y96D, Q99W and F156L) into the Miapaca-2. Totally 14 stable Miapaca-2 mutant cell lines were established through lentivirus infection. For the cell viability assay, cells were dosed with compounds in a 9-point dose-response using a 4 fold dilution series at a top dose of 10 μM. KRAS mutant cells were maintained in DMEM+10% FBS+2.5% HI Horse serum+1% PS+1 μg/mL Puromycin and seeded into 96-well plates at 800-1,500 cells per well 24 h before compound addition and then incubated with compound for 3 d before assaying viability (CellTiter-Glo, Promega). Assays were performed in biological duplicates. Nonlinear regression curves were fitted using Xfit. IC50 (absolute IC50) is the dose at which the estimated viability is 50% relative to untreated wells.
On the technique in general: ATP-based viability assays read luminescence as a measure of living cells.

Test [5] concerns Miapaca-2 KRAS G12C + M72I. The test is described as above. The note with it: Homo sapiens, MIA PaCa-2, 72 h; Miapaca-2 mutant cells, 3 d.
From the text: as §2

The test system of test [6] is Miapaca-2 KRAS G12C + F156L. The description is as above. Conditions: Miapaca-2 mutant cells, 3 d.
From the text: as §2

Test [7] has as its system Miapaca-2 KRAS G12C + A59T. The description is as above. The note with it: Miapaca-2 mutant cells, 3 d.
From the text: as §2

The subject of test [8] is Miapaca-2 KRAS G12C + D92R. Described as above. The note with it: Miapaca-2 mutant cells, 3 d.
From the text: as §2

Test [9] relates to Miapaca-2 KRAS G12C + T58I. Described as above. The note with it: Miapaca-2 mutant cells, 3 d.
From the text: as §2

Test [10] relates to Miapaca-2 KRAS G12C + S17E. The test is described as above. The note with it: Miapaca-2 mutant cells, 3 d.
From the text: as §2

Test [11] deals with Miapaca-2 KRAS G12C + R68S. The test is described as above. Conditions: Miapaca-2 mutant cells, 3 d.
From the text: as §2

Test [12] concerns Miapaca-2 KRAS G12C + S65W. The test is described as above. Conditions: Miapaca-2 mutant cells, 3 d.
From the text: as §2

Test [13] relates to Miapaca-2 KRAS G12C + Y96D. The description is as above. Conditions: Miapaca-2 mutant cells, 3 d.
From the text: as §2

Test [14] has as its system Miapaca-2 KRAS G12C + V8A. Described as above. Conditions: Miapaca-2 mutant cells, 3 d.
From the text: as §2

Test [15] deals with Miapaca-2 KRAS G12C + V9Y. The description is as above. The note with it: Miapaca-2 mutant cells, 3 d.
From the text: as §2

Test [16] concerns Miapaca-2 KRAS G12C + H95N. Described as above. The note with it: Miapaca-2 mutant cells, 3 d.
From the text: as §2

For orientation: IC50 means the midpoint of a concentration-inhibition curve.

As for `CO[C@@H](C)c1ncc(N2CCN(C)CC2)cc1-c1c2c3cc(cc4c3n1CCC4)-c1csc(n1)C[C@H](NC(=O)[C@H]1[C@H](C)[C@@H]1C)C(=O)N1CCC[C@H](N1)C(=O)OCC(C)(C)C2` (atropisomer, axis not shown; (M)) [Example 24, (1r,2R,3S)-N-[(7S,13S)-(20M)-20-[2-[(1S)-1-methoxyethyl]-5-(4-methylpiperazin-1-yl)-3-pyridyl]-17,17-dimethyl-8,14-dioxo-15-oxa-4-thia-9,21,30,31-tetrazahexacyclo[23.3.1.1^2,5.1^9,13.0^19,27.0^21,26]hentriaconta-1 (28),2,5 (31), 19,25 (29),26-hexaen-7-yl]-2,3-dimethyl-cyclopropanecarboxamide], the IC50 is less than 0.6 nM in [1]; 0.9 nM in test [2]; less than 0.6 nM in [3]; 5 nM in [4]; 1 nM in test [5]; 1 nM in test [6]. Further, the IC50 in test [7] worked out at 6 nM; in [8] it was 2 nM; in test [9], 2 nM; in test [10] it was 3 nM; in [11] it was 2 nM; in [12], 1 nM. Further, the IC50 in test [13] is 2 nM; in [14], 1 nM; in test [15], 1 nM; in test [16], 1 nM.
